This is an account of results in patent US8394828B2 (Janssen Pharmaceutica, NV, priority 2003, dated 2013).

The target in test [1] is T1, human VR1 (Homo sapiens, UniProt Q8NER1).
T1 construct: expressed in transfected cells; host or cells: HEK293
Put plainly: Human VR1 [3H] RTX binding assay. The following applies: 3H-RTX binding; for inhibition at 1 µM / 3H-RTX binding assay % Inhibition @ 1 μM: compound at 1 μM; for Ki: hVR1, read-out: 3H-RTX binding assay Ki hVR1. On the procedure:
Compounds of the present invention were tested for their ability to inhibit the binding of [^3H] RTX to hVR1 receptors in a [^3H]
HEK293 cells were transfected with human VR1 vanilloid receptors and washed with Hank's Balanced Salt Solution, dissociated with cell dissociation buffer (Sigma), and then centrifuged at 1000×g for 5 min. […] The pelleted membranes were kept in an −80° C. freezer.
Approximately 120 μg protein/ml from membranes were incubated with indicated concentrations of [^3H] RTX in 0.5 ml of the HEPES buffer (pH 7.4) containing 0.25 mg/mL fatty acid-free bovine serum albumin at 37° C. for 60 min. […] The tip of the microcentrifuge tube containing the pellet was cut off. Bound radioactivity was quantified by scintillation counting. Non-specific binding was tested in the presence of 200 nM unlabeled RTX.

Test [2] deals with T1, human VR1. Put plainly: Human VR1 functional assay (intracellular Ca++, FLIPR, capsaicin challenge). It is filed as cell-based. As to conditions: hVR1, capsaicin challenge, read-out: FLIPR functional assay IC50 hVR1. On the procedure: The functional activity of the test compounds was determined by measuring changes in intracellular calcium concentration using a Ca^++-sensitive fluorescent dye and FLIPR™ technology.
EC50 or IC50 values were determined from dose-response studies.

SMILES strings stand for the structures.

T1 sequence (Q8NER1 whole entry): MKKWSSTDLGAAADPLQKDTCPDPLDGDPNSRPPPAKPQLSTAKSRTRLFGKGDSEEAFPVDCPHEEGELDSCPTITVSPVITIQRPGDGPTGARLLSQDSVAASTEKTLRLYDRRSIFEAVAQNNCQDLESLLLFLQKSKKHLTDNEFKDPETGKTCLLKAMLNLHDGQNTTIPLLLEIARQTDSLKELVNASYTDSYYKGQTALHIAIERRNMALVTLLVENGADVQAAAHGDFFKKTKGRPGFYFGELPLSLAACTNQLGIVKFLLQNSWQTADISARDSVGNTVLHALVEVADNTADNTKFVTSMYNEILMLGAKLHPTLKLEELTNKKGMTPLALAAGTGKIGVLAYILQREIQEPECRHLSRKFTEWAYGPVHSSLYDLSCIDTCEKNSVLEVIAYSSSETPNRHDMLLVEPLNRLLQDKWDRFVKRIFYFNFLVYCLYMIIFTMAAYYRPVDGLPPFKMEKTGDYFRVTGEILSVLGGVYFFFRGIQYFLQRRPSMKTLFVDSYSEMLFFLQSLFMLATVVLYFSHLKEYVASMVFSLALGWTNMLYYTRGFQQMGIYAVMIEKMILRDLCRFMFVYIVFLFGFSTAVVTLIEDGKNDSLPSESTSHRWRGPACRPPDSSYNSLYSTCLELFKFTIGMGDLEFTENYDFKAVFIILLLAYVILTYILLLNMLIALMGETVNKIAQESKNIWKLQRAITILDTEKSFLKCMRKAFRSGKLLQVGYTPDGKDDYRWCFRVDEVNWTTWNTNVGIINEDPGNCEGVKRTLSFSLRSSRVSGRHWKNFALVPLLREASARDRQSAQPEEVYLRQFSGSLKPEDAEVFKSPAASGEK

The inhibition is the drop in the measured response relative to a control, in per cent. In general, Ki refers to a measure of affinity in units of concentration, obtained from inhibition or displacement. `O=C(Nc1cnc2ccccc2c1)c1ccc(N2CC[C@@H]3CCCC[C@H]3C2)cc1` (relative stereo) [trans-4-(Octahydro-isoquinolin-2-yl)-N-quinolin-3-yl-benzamide]: at human VR1 [1], the inhibition at 1 µM is 104% and the Ki was determined as 29.2 nM.

For orientation: IC50 means the concentration needed to halve the response being measured. Take `O=C(Nc1cnc2ccccc2c1Cl)c1ccc2c(ccn2C2CCCCC2)c1` [1-Cyclohexyl-1H-indole-5-carboxylic acid (4-chloro-quinolin-3-yl)-amide]: the IC50 at human VR1 [2] turned out to be 166 nM.

`O=C(Nc1cnc2ccccc2c1)c1ccc2c(ccn2C2CCCCC2)c1` [1-Cyclohexyl-1H-indole-5-carboxylic acid quinolin-3-ylamide]: the IC50 on human VR1 [2] came out at 74 nM.

In the case of `CCCCCN(CCCCC)c1ccc(CC(=O)Nc2cnc3ccccc3c2)cc1` [2-(4-Dipentylamino-phenyl)-N-quinolin-3-yl-acetamide], the Ki at human VR1 [1] worked out at 508 nM.

On to `CCCCCc1ccc(CC(=O)Nc2cnc3ccccc3c2)cc1` [2-(4-Pentyl-phenyl)-N-quinolin-3-yl-acetamide], for which the Ki on human VR1 [1] turned out to be 2200 nM.

Regarding `CC(C)(C)c1ccc(CC(=O)Nc2cnc3ccccc3c2)cc1` [2-(4-tert-Butyl-phenyl)-N-quinolin-3-yl-acetamide], the Ki on human VR1 [1] turned out to be 5760 nM.

With `CCCCCCCN(C)c1ccccc1C(=O)Nc1cnc2ccccc2c1` [2-(Heptyl-methyl-amino)-N-quinolin-3-yl-benzamide], the inhibition at 1 µM on human VR1 [1] was determined as 0%.

For the compound `CCCCCN(C)c1ccccc1C(=O)Nc1cnc2ccccc2c1` [2-(Methyl-pentyl-amino)-N-quinolin-3-yl-benzamide], the inhibition at 1 µM on human VR1 [1] came to 21%.

Take `O=C(Nc1cnc2ccccc2c1)c1ccc(NCC2CCCCC2)cc1Cl` [2-Chloro-4-(cyclohexylmethyl-amino)-N-quinolin-3-yl-benzamide]: at human VR1 [1], the inhibition at 1 µM turned out to be 65% and the Ki is 1130 nM.

Regarding `CCCCCNc1ccccc1C(=O)Nc1cnc2ccccc2c1` [2-Pentylamino-N-quinolin-3-yl-benzamide], the inhibition at 1 µM at human VR1 [1] worked out at 23%.

On to `CCCCCN(C)c1ccc(CC(=O)Nc2cnc3ccccc3c2)cc1` [2-{4-(Methyl-pentyl-amino)-phenyl}-N-quinolin-3-yl-acetamide], for which the inhibitory constant (Ki) at human VR1 [1] worked out at 1350 nM.

As to `O=C(Nc1cnc2ccccc2c1)c1ccc(N2CCCCC2)nc1` [3,4,5,6-Tetrahydro-2H-[1,2′]bipyridinyl-5′-carboxylic acid q] [3,4,5,6-Tetrahydro-2H-[1,2′]bipyridinyl-5′-carboxylic acid quinolin-3-ylamide], the “3H-RTX binding assay % Inhibition @ 1 μM” value on human VR1 [1] worked out at 1%.

Take `O=C(Nc1cnc2ccccc2c1)c1ccc(N2CCCCC2)nc1` [3,4,5,6-Tetrahydro-2H-{1,2′}bipyridinyl-5′-carboxylic acid q] [3,4,5,6-Tetrahydro-2H-{1,2′}bipyridinyl-5′-carboxylic acid quinolin-3-ylamide]: the “3H-RTX binding assay % Inhibition @ 1 μM” value at human VR1 [1] came out at 100%.

As to `CCCCCN(CCCCC)c1ccc(CCC(=O)Nc2cnc3ccccc3c2)cc1` [3-(4-Dipentylamino-phenyl)-N-quinolin-3-yl-propionamide], the Ki on human VR1 [1] worked out at 153 nM.

In the case of `CC(C)(C)c1ccc(C=CC(=O)Nc2cnc3ccccc3c2)cc1` [3-(4-tert-Butyl-phenyl)-N-quinolin-3-yl-acrylamide], the Ki on human VR1 [1] worked out at 1.11 nM.

As to `CC(C)(C)c1ccc(CCC(=O)Nc2cnc3ccccc3c2)cc1` [3-(4-tert-Butyl-phenyl)-N-quinolin-3-yl-propionamide], the Ki on human VR1 [1] stood at 2.03 nM.

For `CC(C)(C)c1ccc(C#CC(=O)Nc2cnc3ccccc3c2)cc1` [3-(4-tert-Butyl-phenyl)-propynoic acid quinolin-3-ylamide], the IC50 at human VR1 [2] stood at 66 nM.

As for `CN(c1cccc(C(=O)Nc2cnc3ccccc3c2)c1)C1CCCCC1` [3-(Cyclohexyl-methyl-amino)-N-quinolin-3-yl-benzamide], at human VR1 [1], the inhibition at 1 µM was 89% and the Ki was determined as 98.2 nM.

`CC(C)(CCc1ccccc1)c1ccc(CCC(=O)Nc2cnc3ccccc3c2)cc1` [3-{4-(1,1-Dimethyl-3-phenyl-propyl)-phenyl}-N-quinolin-3-yl-propionamide]: the Ki on human VR1 [1] is 15.9 nM.

On to `CCCCCN(C)c1ccc(C=CC(=O)Nc2cnc3ccccc3c2)cc1` [3-{4-(Methyl-pentyl-amino)-phenyl}-N-quinolin-3-yl-acrylamide], for which, on human VR1 [1], the inhibition at 1 µM was determined as 65% and the Ki was 122 nM.

In the case of `CCC(C)(C)c1ccc(CCC(=O)Nc2cnc3ccccc3c2)s1` [3-{5-(1,1-Dimethyl-propyl)-thiophen-2-yl}-N-quinolin-3-yl-propionamide], at human VR1 [1], the Ki was determined as 14.2 nM.

Regarding `O=C(Nc1cnc2ccccc2c1)c1ccc(N2Cc3ccccc3C2)cc1` [4-(1,3-Dihydro-isoindol-2-yl)-N-quinolin-3-yl-benzamide], the inhibition at 1 µM at human VR1 [1] came to 1%.

As for `O=C(Nc1cnc2ccccc2c1)c1ccc(N2CCC3(CC2)OCCO3)cc1` [4-(1,4-Dioxa-8-aza-spiro[4.5]dec-8-yl)-N-quinolin-3-yl-benzamide], the inhibition at 1 µM on human VR1 [1] was found to be 9%.

As to `CC1CCCN(c2ccc(C(=O)Nc3cnc4ccccc4c3)cc2)C1` (stereo not drawn) [4-(3-Methyl-piperidin-1-yl)-N-quinolin-3-yl-benzamide], the inhibition at 1 µM at human VR1 [1] was 78%.

For `O=C(Nc1cnc2ccccc2c1)c1ccc(N2CCC(C(=O)c3ccccc3)CC2)cc1` [4-(4-Benzoyl-piperidin-1-yl)-N-quinolin-3-yl-benzamide], on human VR1 [1], the inhibition at 1 µM came out at 61% and the Ki was 276 nM.

For the compound `O=C(Nc1cnc2ccccc2c1)c1ccc(N2CCC(c3ccccc3)CC2)cc1` [4-(4-Phenyl-piperidin-1-yl)-N-quinolin-3-yl-benzamide], at human VR1 [1], the inhibition at 1 µM came to 34% and the Ki stood at 29300 nM.

Take `CCCCCN(Cc1ccccc1)c1ccc(C(=O)Nc2cnc3ccccc3c2)cc1` [4-(Benzyl-pentyl-amino)-N-quinolin-3-yl-benzamide]: at human VR1 [1], the inhibition at 1 µM amounted to 67% and the Ki was 169 nM.

`Cc1cc(C(=O)Nc2cnc3ccccc3c2)ccc1NCC1CCCCC1` [4-(Cyclohexylmethyl-amino)-3-methyl-N-quinolin-3-yl-benzamide]: at human VR1 [1], the inhibition at 1 µM was 111% and the inhibition constant Ki was 87 nM.

Take `O=C(Nc1cnc2ccccc2c1)c1ccc(N(CCc2ccccc2)CC2CCCCC2)cc1` [4-(Cyclohexylmethyl-phenethyl-amino)-N-quinolin-3-yl-benzamide]: at human VR1 [1], the inhibition at 1 µM amounted to 87% and the Ki was 162 nM.

Take `O=C(Nc1cnc2ccccc2c1)c1ccc(NC2CCCCCC2)cc1` [4-Cycloheptylamino-N-quinolin-3-yl-benzamide]: the IC50 at human VR1 [2] was 730 nM.

For `CCCCCN(CCCCC)c1ccc(C(=O)Nc2cnc3ccccc3c2)cc1` [4-Dipentylamino-N-quinolin-3-yl-benzamide], on human VR1 [1], the Ki is 158 nM.

With `O=C(Nc1cnc2ccccc2c1)c1ccc(N2CCOCC2)cc1` [4-Morpholin-4-yl-N-quinolin-3-yl-benzamide], the inhibition at 1 µM on human VR1 [1] came out at 4%.

As for `O=C(Nc1cnc2ccccc2c1)c1ccc(N2CCCCC2)cc1` [4-Piperidin-1-yl-N-quinolin-3-yl-benzamide], at human VR1 [1], the inhibition at 1 µM is 60% and the Ki was found to be 61.2 nM.

`O=C(Nc1cnc2ccccc2c1)c1ccc(N2CCCC2)cc1` [4-Pyrrolidin-1-yl-N-quinolin-3-yl-benzamide]: the inhibition at 1 µM on human VR1 [1] worked out at 27%.

Turning to `O=C(Nc1cnc2ccccc2c1)c1ccc(N2CCC(N3CCCCC3)CC2)cc1` [4-[1,4′]Bipiperidinyl-1′-yl-N-quinolin-3-yl-benzamide], at human VR1 [1], the inhibition at 1 µM was determined as 8%.

Consider `CCCCC(C)(C)c1ccc(C=CCC(=O)Nc2cnc3ccccc3c2)cc1` [4-{4-(1,1-Dimethyl-pentyl)-phenyl}-but-3-enoic acid quinolin-3-ylamide], for which, at human VR1 [1], the inhibition at 1 µM turned out to be 80% and the Ki came to 194 nM.

As for `CCC(C)(C)c1ccc(CCCC(=O)Nc2cnc3ccccc3c2)cc1` [4-{4-(1,1-Dimethyl-propyl)-phenyl}-N-quinolin-3-yl-butyramide], at human VR1 [1], the inhibition at 1 µM stood at 65% and the Ki came out at 527 nM.

For the compound `CN(CC=Cc1ccccc1)c1ccc(C(=O)Nc2cnc3ccccc3c2)cc1` [4-{Methyl-(3-phenyl-allyl)-amino}-N-quinolin-3-yl-benzamide], at human VR1 [1], the inhibition at 1 µM came out at 79% and the Ki came to 125 nM.

For the compound `CN(c1ccc(C(=O)Nc2cnc3ccccc3c2)cc1)C1CCOCC1` [4-{Methyl-(tetrahydro-pyran-4-yl)-amino}-N-quinolin-3-yl-benzamide], the inhibition at 1 µM on human VR1 [1] was found to be 19%.

On to `CC1(C)CCC(C)(C)c2cc(C(=O)Nc3cnc4ccccc4c3)ccc21` [5,5,8,8-Tetramethyl-5,6,7,8-tetrahydro-naphthalene-2-carboxylic acid quinolin-3-ylamide], for which the Ki at human VR1 [1] stood at 30.4 nM.

`O=C(Nc1cnc2ccccc2c1)c1ccc(NC2CCOCC2)cc1` [N-Quinolin-3-yl-4-(tetrahydro-pyran-4-ylamino)-benzamide]: the inhibition at 1 µM at human VR1 [1] was 9%.

For `O=C(Nc1cnc2ccccc2c1)c1ccc(N2CCSCC2)cc1` [N-Quinolin-3-yl-4-thiomorpholin-4-yl-benzamide], on human VR1 [1], the inhibition at 1 µM amounted to 41%.

Regarding `CC(C)=CCC[C@@H](C)CCN(C)c1ccc(C(=O)Nc2cnc3ccccc3c2)cc1` [R-4-{(3,7-Dimethyl-oct-6-enyl)-methyl-amino}-N-quinolin-3-yl-benzamide], on human VR1 [1], the inhibition at 1 µM stood at 105% and the Ki worked out at 11.1 nM.
